Literature values in US5547668A, “Conjugates of folate anti-effector cell antibodies” (The Board of Trustees of The University of Illinois, priority 1995, dated 1996).

Tested on: FR

SMILES | affinity for the FR
C#CCN(Cc1ccc2nc(N)[nH]c(=O)c2c1)c1ccc(C(=O)N[C@@H](CCC(=O)O)C(=O)O)cc1 [CB3717, N^10-propargyl-5,8-dideazafolic acid] | bind with high affinity
C#CCN(Cc1ccc2nc(C)[nH]c(=O)c2c1)c1ccc(C(=O)N[C@@H](CCC(=O)O)C(=O)O)cc1 [ICI-198,583, 2-deamino-2-methyl-N^10-propargyl-5,8-dideazafolic acid] | bind with high affinity
CN(Cc1cnc2nc(N)nc(N)c2n1)c1ccc(C(=O)N[C@@H](CCC(=O)O)C(=O)O)cc1 [MTX, methotrexate] | does not bind to MTX with high affinity
